Paper PMC4319847 (PLoS ONE, 2015)
No end group written: not given here.

Target: T1, ΔIBB-h-importin-α1 (Homo sapiens, UniProt P52292, DEL11-54)
T1 construct: IBB domain-truncated h-importin-α1 (Δ-h-importin-α1) (1–10, 55–529); GST (N, cleaved yes); His6 (C); made in house; host or cells: E. coli BL21 (DE3) Codonplus-RIL
Test: ITC binding of NLS peptides to ΔIBB-h-importin-α1

KRPAATKKAGQAKKKK [nucleoplasmin NLS]
Kd: 0.14 ± 0.05 µM
